Assay [1] concerns the target T1, MCL-1 (Homo sapiens, UniProt Q07820, K194A/K197A/R201A). The experiment in a line: Protein-protein interaction assay MCL-1/Noxa BH3 peptide, TR-FRET (MCL-1 assay, Assay 1). Particulars: MBP-MCL-1 / Noxa BH3 peptide. In kind it is binding. The gist of the method:
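Human MBP-fused MCL-1 (aa 173-321; 1 nM final) was pre-incubated 10 min at 22 °C with compound in pH 7 Tris buffer containing NaCl, KF, Tween-20, DTT and BGG. Displacement of biotinylated Noxa BH3 peptide was read by TR-FRET (anti-MBP-Eu cryptate/streptavidin-XL665) after 1 h at 22 °C plus overnight at 4 °C. IC50 came from four-parameter fits against DMSO controls.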
Background: TR-FRET usually uses a lanthanide donor and a delayed reading to cut background.

The target in assay [2] is T1, MCL-1. The experiment in a line: Protein-compound interaction assay, surface plasmon resonance (SPR assay, Assay 8). In kind it is binding. The text has this: Protein-Compound Interaction Assay (SPR Assay)
The ability of the compounds described in this invention to bind to MCL-1 may be determined using surface plasmon resonance (SPR). This allows for the quantification of binding in terms of the equilibrium dissociation constant (KD [M]), as well as association and dissociation rate constants (kon [1/M 1/s] and koff [1/s], respectively). The measurements may be performed using Biacore® T200 or Biacore® S200 instruments (GE Healthcare).
Briefly, carboxymethylated dextran biosensor chips (Series S Sensor Chip CM5, GE Healthcare) were activated with 1-ethyl-3-(3-dimethylaminopropyl)-carbodiimide hydrochloride (EDC) and N-hydroxysuccinimide (NHS) according to the supplier's instructions. MBP-MCL-1 was diluted in 1×PBS-P+ (GE Healthcare) and injected on the activated chip surface. Subsequently, a solution of 1 M ethanolamine-HCl (GE Healthcare) was injected to block unreacted groups, resulting in approximately 400-2500 response units (RU) of immobilized protein. A reference surface was generated by treatment with NHS-EDC and ethanolamine-HCl. […] Compounds were injected for 60 s followed by a dissociation time of up to 1000 s.
The double-referenced sensorgrams were fit to a simple reversible Langmuir 1:1 reaction mechanism as implemented in the Biacore® T200 and S200 evaluation software (T200 evaluation software version 2.0 and S200 evaluation software version 1.0, GE Healthcare).
Background: Surface plasmon resonance follows binding to a sensor surface in real time, without labels.

In a further assay the test system is SUDHL10. The experiment in a line: Anti-proliferative effect in SUDHL10 cells, CellTiter-Glo (Assay 7). In kind it is cell-based. Particulars: median, read-out: Antiproli SUDHL10 [M] (median). The protocol:
(§1) Assessment of the Anti-Proliferative Effect of Compounds in Different Cell Lines
(§2) The impact of compounds on the proliferation of different cell lines was assessed using the CellTiter-Glo® Luminescent Cell Viability reagent from Promega (G7573).
(§3) In parallel, cells were plated in a reference (day 0) plate for time zero determination. Cells were incubated in a humidified incubator at 37° C. overnight.
(§4) Rim wells were excluded. The cells were incubated for 72 hours in a humidified incubator at 37° C. The day 0 plate was measured by adding 30 μL/well of CTG solution (CellTiter-Glo® Luminescent Cell Viability reagent, Promega G7573) to time zero wells in the reference plate followed by a 10 minutes incubation and luminescence reading at 0.1 ms. using the PHERAstar FS microplate reader (BMG Labtech).
(§5) After 72 hours incubation, the treated plates were measured in the same way as the day 0 plate mentioned above. The Bella DRC Master Sheet was used to calculate IC50s, with CI=day 0 values and C0=DMSO control values.
(In ATP-based viability assays light output follows the ATP content of the culture.)

Another assay concerns HMC-1-8. Nature of the assay: Anti-proliferative effect in HMC-1-8 cells, CellTiter-Glo (Assay 7). In kind it is cell-based. The protocol:
as §1, §2, §3, §4, §5

[3] abbreviates: KD [M], SPR, immobilized MBP-MCL-1, 25° C., geometric mean.
The mark [4] stands for this setting: read-out: koff [1/s], SPR, immobilized MBP-MCL-1, 25° C., geometric mean.
Where [5] appears, read: read-out: kon [1/M 1/s], SPR, immobilized MBP-MCL-1, 25° C., geometric mean.
[6] abbreviates: SPR, immobilized MBP-MCL-1, 25° C., geometric mean, read-out: KD.
The mark [7] stands for this setting: median, read-out: MCL-1 Assay [M] (median).
Setting [8] is: SPR, immobilized MBP-MCL-1, 25° C., geometric mean.

The results in this text go back to patent US20210253598A1, “ARYL ANNULATED MACROCYCLIC INDOLE DERIVATIVES” (priority 2017, published 2021).

One may read the Kd as a measure of binding affinity in units of concentration.

The structures appear in SMILES notation. Where a name gives a salt, the structure may show the parent alone. Read-outs that look alike come from different tables or passages of the source.

T1 sequence (Q07820 173-321 K194A/K197A/R201A, looked up): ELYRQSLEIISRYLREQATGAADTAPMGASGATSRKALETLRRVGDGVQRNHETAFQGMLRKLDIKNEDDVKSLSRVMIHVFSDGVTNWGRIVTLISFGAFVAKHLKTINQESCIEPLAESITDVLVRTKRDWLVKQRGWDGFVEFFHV

Regarding `Cc1c2c(nn1C)COCc1ccccc1Cn1c(C(=O)O)c(CCCOc3cccc4cc(F)ccc34)c3ccc(F)c-2c31` (single isomer, unassigned; enantiomer 1) [Example 65, (−)-3-fluoro-17-{3-[(6-fluoronaphthalen-1-yl)oxy]propyl}-4,5-dimethyl-5,7,9,14-tetrahydroindolo[7,1-fg]pyrazolo[3,4-d][2,8]benzoxazacycloundecine-16-carboxylic acid-N-ethylethanamine Salt (Enantiomer 1)], the IC50 against MCL-1 [1] (MCL-1 Assay [M] (median)) stood at 1.3e-09 M. This compound also displayed a Kd on MCL-1 [2] (setting [3]) of 1.4e-09 M. Also, the koff at MCL-1 [2] (setting [4]) is 0.011 s⁻¹. Also, the kon on MCL-1 [2] (setting [5]) stood at 8e+06 M⁻¹ s⁻¹.
`CCc1nn(CCN2CCOCC2)c2c1-c1c(Cl)ccc3c(CCCOc4cccc5cc(F)ccc45)c(C(=O)O)n(c13)Cc1ccccc1COC2` (single isomer, unassigned; enantiomer 1) [Example 52, (−)-3-Chloro-4-ethyl-17-{3-[(6-fluoronaphthalen-1-yl)oxy]propyl}-6-[2-(morpholin-4-yl)ethyl]-6,7,9,14-tetrahydroindolo[7,1-fg]pyrazolo[3,4-d][2,8]benzoxazacycloundecine-16-carboxylic Acid (Enantiomer 1)]: the IC50 against MCL-1 [1] (MCL-1 Assay [M] (median)) worked out at 9.6e-10 M. Also, at MCL-1 [2] (setting [6]), the dissociation constant (Kd) worked out at 1.5e-09 M. In addition, on MCL-1 [2] (read-out: koff [1/s]), the koff was found to be 0.024 s⁻¹. On MCL-1 [2] (read-out: kon [1/M 1/s]), the kon was determined as 1.6e+07 M⁻¹ s⁻¹.
At MCL-1 [1] (MCL-1 Assay [M] (median)), `Cc1c2c(nn1C)COCc1ccccc1Cn1c(C(=O)O)c(CCCOc3cccc4cc(F)ccc34)c3ccc(Cl)c-2c31` (racemic) [Example 48, (rac)-3-Chloro-17-{3-[(6-fluoronaphthalen-1-yl)oxy]propyl}-4,5-dimethyl-5,7,9,14-tetrahydroindolo[7,1-fg]pyrazolo[3,4-d][2,8]benzoxazacycloundecine-16-carboxylic Acid] returned an IC50 of 5.9e-10 M. Besides, the affinity on MCL-1 [2] (setting [3]), expressed as Kd, was 8e-09 M. Besides, the koff on MCL-1 [2] (setting [4]) was 0.006 s⁻¹. In addition, on MCL-1 [2] (setting [5]), the kon came to 750000 M⁻¹ s⁻¹.
`CCNCC.Cc1c2c(nn1C)COCc1ncccc1Cn1c(C(=O)O)c(CCCOc3cccc4ccccc34)c3ccc(Cl)c-2c31` (single isomer, unassigned; enantiomer 1) [Example 43, 3-Chloro-4,5-dimethyl-17-[3-(naphthalen-1-yloxy)propyl]-5,7,9,14-tetrahydropyrazolo-[4′,3′:9,10]pyrido[2′,3′:3,4][1,6]oxazacycloundecino[8,7,6-hi]indole-16-carboxylic acid-N-ethylethanamine Salt (Enantiomer 1)]: the IC50 at MCL-1 [1] (setting [7]) is 5.1e-10 M; in the assay on SUDHL10 (SUDHL10, 72 hours incubation), 1.5e-06 M. For the same compound, the “koff” value on MCL-1 [2] (setting [8]) was 0.0096 s⁻¹. The “kon [1/M 1/s]” value on MCL-1 [2] (setting [8]) is 5.6E6 1/M 1/s. In addition, the Kd at MCL-1 [2] (setting [6]) turned out to be 1.7e-09 M.
`CCc1nn(C)c2c1-c1c(Cl)ccc3c(CCCOc4cccc5cc(F)ccc45)c(C(=O)O)n(c13)Cc1ccccc1COC2` (single isomer, unassigned; enantiomer 1) [Example 58, (+)-3-Chloro-4-ethyl-17-{3-[(6-fluoronaphthalen-1-yl)oxy]propyl}-6-methyl-6,7,9,14-tetrahydro-indolo[7,1-fg]pyrazolo[3,4-d][2,8]benzoxazacycloundecine-16-carboxylic acid-N-ethylethanamine Salt (Enantiomer 1)]: the IC50 at MCL-1 [1] (setting [7]) was 2.6e-09 M; in the assay on HMC-1-8 (HMC-1-8, 72 hours incubation, read-out: Antiproli HMC-1-8), 3870 nM.
With `CCc1c2c(nn1C)COCc1ccccc1Cn1c(C(=O)O)c(CCCOc3cccc4cc(F)ccc34)c3ccc(Cl)c-2c31` (single isomer, unassigned; enantiomer 2) [Example 56, (+)-3-Chloro-4-ethyl-17-{3-[(6-fluoronaphthalen-1-yl)oxy]propyl}-5-methyl-5,7,9,14-tetrahydro-indolo[7,1-fg]pyrazolo[3,4-d][2,8]benzoxazacycloundecine-16-carboxylic Acid N-ethylethanamine Salt (Enantiomer 2)], the IC50 was 3.2e-09 M against MCL-1 [1] (MCL-1 Assay [M] (median)) and 10900 nM in the assay on HMC-1-8 (read-out: Antiproli HMC-1-8, HMC-1-8, 72 hours incubation).
For `Cc1c2c(nn1C)COCc1ccccc1Cn1c(C(=O)O)c(CCCOc3cccc4cc(F)ccc34)c3ccc(Cl)c-2c31` (single isomer, unassigned; enantiomer 2) [Example 50, (+)-3-Chloro-17-{3-[(6-fluoronaphthalen-1-yl)oxy]propyl}-4,5-dimethyl-5,7,9,14-tetrahydroindolo[7,1-fg]pyrazolo[3,4-d][2,8]benzoxazacycloundecine-16-carboxylic acid-N-ethylethanamine Salt (Enantiomer 2)], the IC50 against MCL-1 [1] (MCL-1 Assay [M] (median)) was 1.4e-09 M. The IC50 in the assay with SUDHL10 (SUDHL10, 72 hours incubation) was determined as 1.2e-06 M. For the same compound, at MCL-1 [2] (setting [3]), the dissociation constant (Kd) was determined as 3.8e-09 M. Further, at MCL-1 [2] (setting [8]), the “koff” value is 0.0061 s⁻¹ and the “kon [1/M 1/s]” value was 1.6E6 1/M 1/s.
As to `Cc1c2c(nn1C)COCc1ccccc1Cn1c(C(=O)O)c(CCCOc3cccc4ccccc34)c3ccc(F)c-2c31` (single isomer, unassigned; enantiomer 1) [Example 68, (−)-3-Fluoro-4,5-dimethyl-17-{3-[(naphthalen-1-yl)oxy]propyl}-5,7,9,14-tetrahydroindolo[7,1-fg]pyrazolo[3,4-d][2,8]benzoxazacycloundecine-16-carboxylic acid-N-ethylethanamine Salt (Enantiomer 1)], the IC50 against MCL-1 [1] (MCL-1 Assay [M] (median)) was found to be 3.2e-09 M.
For `Cc1c2c(nn1C)COCc1ccccc1Cn1c(C(=O)O)c(CCCOc3cccc4ccccc34)c3ccc(Cl)c-2c31` (single isomer, unassigned; enantiomer 1) [Example 37, (−)-3-Chloro-4,5-dimethyl-17-[3-(naphthalen-1-yloxy)propyl]-5,7,9,14-tetrahydroindolo[7,1-fg]pyrazolo[3,4-d][2,8]benzoxazacycloundecine-16-carboxylic Acid (Enantiomer 1)], on MCL-1 [1] (MCL-1 Assay [M] (median)), the IC50 turned out to be 1.3e-09 M. Also, binding on MCL-1 [2] (setting [3]) was put at a Kd of 4.7e-09 M. In addition, the koff at MCL-1 [2] (setting [4]) stood at 0.011 s⁻¹. The kon on MCL-1 [2] (setting [5]) was 2.4e+06 M⁻¹ s⁻¹.
For the compound `Cc1c2c(nn1C)COCc1ccccc1Cn1c(C(=O)O)c(CCCOc3cccc4cc(F)ccc34)c3ccc(Cl)c-2c31` (single isomer, unassigned; enantiomer 1) [Example 49, (−)-3-Chloro-17-{3-[(6-fluoronaphthalen-1-yl)oxy]propyl}-4,5-dimethyl-5,7,9,14-tetrahydroindolo[7,1-fg]pyrazolo[3,4-d][2,8]benzoxazacycloundecine-16-carboxylic acid-N-ethylethanamine Salt (Enantiomer 1)], the IC50 was found to be 4.7e-10 M on MCL-1 [1] (MCL-1 Assay [M] (median)) and 1.2e-06 M in the assay with SUDHL10 (Homo sapiens, SU-DHL10, SUDHL10, 72 hours incubation). For the same compound, the Kd on MCL-1 [2] (setting [3]) turned out to be 3e-09 M. The koff on MCL-1 [2] (setting [4]) was 0.0058 s⁻¹. Moreover, the kon on MCL-1 [2] (setting [5]) worked out at 1.9e+06 M⁻¹ s⁻¹.
At MCL-1 [1] (MCL-1 Assay [M] (median)), `Cc1c2c(nn1C)COCc1ncccc1Cn1c(C(=O)O)c(CCCOc3cccc4ccccc34)c3cccc-2c31` (single isomer, unassigned; enantiomer 1) [Example 8, 4,5-Dimethyl-17-[3-(naphthalen-1-yloxy)propyl]-5,7,9,14-tetrahydropyrazolo[4′,3′:9,10]-pyrido[2′,3′:3,4][1,6]oxazacycloundecino[8,7,6-hi]indole-16-carboxylic acid-N-ethylethanamine Salt (Enantiomer 1)] showed an IC50 of 1.5e-09 M. This compound also displayed a dissociation constant (Kd) at MCL-1 [2] (setting [3]) of 3.4e-09 M.
